Structures can show the parent of a compound that is named as a salt. Marks after values point to notes of the source that are not given here.
Legend:
[1] = tested on: ICR mice; assay: Forced swimming test in mice; assay type: in vivo; conditions: 1 h after administration, last 4 min; for Immobility Time (s): listed as paeoniflorin
Method: Each group was administered by gavage at a dose of 0.2 ml/10 g weight, for two days, deionized water was administered to vehicle group.
In the second day, 1 h after the administration, the mice were placed separately into a water cylinder with 20 cm of height, 18 cm of diameter, 10 cm of depth, 23±2° C. of water temperature; observing each for 6 min, after 2 min of adaption, the immobility time over the last 4 min was recorded.
The data was expressed as x±s, analyzed by SPSS 13.0 statistical software by means of One-Way ANOVA test, the homogeneity of variance was tested by LSD and SNK test.

[2] = tested on: ICR mice; assay: Tail suspension test in mice, administration by gavage; assay type: in vivo; conditions: 1 h after administration, over 4 min; for Immobility Time (s): listed as paeoniflorin
Method: In the second day, 1 h after the administration, the tail of mouse (2 cm away from the tip of the tail) was fixed to the connection line of 100 g tension transducer by adhesive plaster, and the mouse was hung upside down, with the head about 15 cm away from the experimental bench, two animals isolated from each other by a cardboard were simultaneously tested for each time. The transducer was connected to the Medlab bio-signals acquisition and processing system, after 2 min of adaption, the result over 4 min was recorded, and the immobility situation was converted into the time(s). The experimental data were expressed as X±SD, and the analysis of variance for the experimental results was carried out by SPSS 11.5 statistical software (purchased from SPSS Inc., USA).

[3] = tested on: rats with chronic stress induced depression model; assay: Open-field test, chronic stress induced depression; assay type: in vivo, SD rats; conditions: 3 mg/kg/day gavage for 21 days, 3 minutes, Hydrochloride
Method: (§1) The gavage was carried out along with the model establishment, once a day, for 21 days. […] Referring to the methods in the literature (Xu Jing, Li Xiaoqiu, Establishment and evaluation of the model of chronic stress induced depression, Chinese Journal of Behavioral Medical Science, 2003, 12(1): 14 16), the model was established (i.e., establishing animal model of anti-depression by means of CUMS): the foot electric shock (voltage: […] (5 minutes), drying at 45° C. (5 minutes), tail nipping (1 min), wet feeding (wet mat), reversed day and night (24 hours), fasting (24 hours), water deprivation (24 hours) were randomly scheduled within 21 days, one kind of stimulations was given for each day, except for the animals of vehicle group, the others were separately caged with free diet, at the room temperature of (24±1)° C., with the relative humidity of (60±10)%. The open-field device was of 40 cm in height, 80 cm in both length and width, without cap, the inner walls and the bottom of the device are black, and the bottom was divided into 25 squares with equal area. The numbers of squares that the animals pass through were designated as the score of horizontal movement, and the numbers of standing (with the forelegs above 1 cm away from the ground) were designated as the score of vertical movement. Each animal was measured for one time, 3 minutes for each measurement. All parameters to be tested were expressed as Mean±SD (X±s), and tested by means of analysis of variance (ANOVA) in SPSS 12.0 software (purchased from SPSS Inc., USA), p<0.05 means that there was a significant difference.

[4] = tested on: ICR mice; assay: Tail suspension test in mice, extract of Radix paeoniae alba; assay type: in vivo; conditions: 3.5 mg/kg/d gavage for 2 days; 1 hour after last administration; 4 min; Hydrochloride
Method: Each group was administered at a dosage of 0.2 ml/10 g body weight. The vehicle group was administered with deionized water by gavage once a day, for 2 days. The test was carried out at 1 hour after the last administration. The tail of mouse (2 cm away from the tip of the tail) was fixed to the connection line of 100 g tension transducer with adhesive plaster, and the mouse was hung upside down, with the head about 15 cm away from the experimental bench, the transducer was connected to the Medlab bio-signals acquisition and processing system, after 2 min of adaption, the immobility time(s) for 4 min was recorded.
The experimental data was expressed as X±s, analyzed by SPSS 13.0 statistical software by means of One-Way ANOVA test.

[5] = tested on: rats with chronic stress induced depression model; assay: Body weights of rats with chronic stress induced depression (CUMS); assay type: in vivo, SD rats; conditions: 3 mg/kg/day gavage
Method: as §1, with “(60±10)%.” for “(60±10)%. The open-field device was of 40 cm in height, 80 cm in both length and width, without cap, the inner walls and the bottom of the device are black, and the bottom was divided into 25 squares with equal area. The numbers of squares that the animals pass through were designated as the score of horizontal movement, and the numbers of standing (with the forelegs above 1 cm away from the ground) were designated as the score of vertical movement. Each animal was measured for one time, 3 minutes for each measurement.”

[6] = tested on: rats with chronic stress induced depression model; assay: Consumption of 1% aqueous sucrose, chronic stress induced depression; assay type: in vivo, SD rats; conditions: 3 mg/kg/day gavage, 1% aqueous sucrose for 1 hour
Method: The gavage was carried out along with the model establishment, once a day, for 21 days. […] Referring to the methods in the literature (Xu Jing, Li Xiaoqiu, Establishment and evaluation of the model of chronic stress induced depression, Chinese Journal of Behavioral Medical Science, 2003, 12(1): 14 16), the model was established (i.e., establishing animal model of anti-depression by means of CUMS): the foot electric shock (voltage: […] (5 minutes), drying at 45° C. […] All parameters to be tested were expressed as Mean±SD (X±s), and tested by means of analysis of variance (ANOVA) in SPSS 12.0 software (purchased from SPSS Inc., USA), p<0.05 means that there was a significant difference.

[7] = tested on: rats with chronic stress induced depression model; assay: Jump stair test, chronic stress induced depression; assay type: in vivo, SD rats; conditions: 3 mg/kg/day gavage for 21 days, 5 minutes, Hydrochloride; for Error times in testing period: after 24 hours
Method: The gavage was carried out along with the model establishment, once a day, for 21 days. […] Referring to the methods in the literature (Xu Jing, Li Xiaoqiu, Establishment and evaluation of the model of chronic stress induced depression, Chinese Journal of Behavioral Medical Science, 2003, 12(1): 14 16), the model was established (i.e., establishing animal model of anti-depression by means of CUMS): the foot electric shock (voltage: […] (5 minutes), drying at 45° C. (5 minutes), tail nipping (1 min), wet feeding (wet mat), reversed day and night (24 hours), fasting (24 hours), water deprivation (24 hours) were randomly scheduled within 21 days, one kind of stimulations was given for each day, except for the animals of vehicle group, the others were separately caged with free diet, at the room temperature of (24±1)° C., with the relative humidity of (60±10)%. […] A wooden platform (height: 5 cm, diameter: 8 cm) was placed into the box at the left back corner. Animals were placed into the response box to adapt to the environment for 3 minutes, and then the box was immediately electrified with […] alternating current, the normal response of the animal which suffered from electric shock was to jump onto the platform in order to avoid such harmful stimulation. Most animals were likely to jump down to the copper railings again or for several times, and then quickly jump back to the platform after suffering from the electric shock, being trained like this for 5 minutes, the times that the rats suffered from the electric shock were designated as error times. The test was carried out again after 24 hours, rats were placed on the platform and the box was charged, timing and recording the error times for 5 minutes. All parameters to be tested were expressed as Mean±SD (X±s), and tested by means of analysis of variance (ANOVA) in SPSS 12.0 software (purchased from SPSS Inc., USA), p<0.05 means that there was a significant difference.

[8] = tested on: ICR mice; assay: Reserpine-induced hypothermia test in mice; assay type: in vivo; conditions: 3 mg/kg gavage 7 days, reserpine 2 mg/kg i.p., rectal temperature 4 hours after reserpine
Method: 50 mice were randomly divided into five groups (n=10 for each group): high-dose group (14 mg*kg^−1), medium-dose group (7 mg*kg^−1), low-dose group (3.5 mg*kg^−1) of Albiflorin; control group of paroxetine (3 mg/kg); model group of physiological saline. The gavage was carried out for 7 days. Rectal temperatures of mice were measured at 1 hour after the administration on the 8th day, then reserpine was administered by intraperitoneal injection at a dose of 2 mg/kg, rectal temperatures of mice were measured again at 4 hours after the injection of reserpine. The depth into anus of thermometer and the time for each temperature measurement of mice was coincident. The experimental data was expressed as X±SD, and the analysis of variance for the experimental results was carried out by SPSS 11.5 statistical software (purchased from SPSS Inc., USA), the experimental results were shown in Table 4.

[9] = 3.5 mg/kg/d by gavage for two days
[10] = 7 mg/kg/d by gavage for two days
[11] = 14 mg/kg/d by gavage for two days
[12] = Day 14, listed as Positice control, Hydrochloride
[13] = Day 14, listed as Prozac, Hydrochloride
[14] = Day 21, listed as Positice control, Hydrochloride
[15] = Day 21, listed as Prozac, Hydrochloride

C[C@@]12C[C@@]3(O)O[C@@H](O1)[C@]1(COC(=O)c4ccccc4)[C@H]3C[C@@]12O[C@@H]1O[C@H](CO)[C@@H](O)[C@H](O)[C@H]1O [Paeoniflorin]
Immobility Time [1, 9]: 58.60 ± 32.320 s | Immobility Time (s) [1, 9]: not significantly different from the model group | Immobility Time [1, 10]: 43.94 ± 38.341 s | Immobility Time (s) [1, 10]: not significantly different from the model group | Immobility Time [1, 11]: 50.39 ± 31.257 s | Immobility Time (s) [1, 11]: not significantly different from the model group | Immobility Time [2, 9]: 85.62 ± 31.225 s | Immobility Time (s) [2, 9]: not significantly different from the model group | Immobility Time [2, 10]: 76.83 ± 36.452 s | Immobility Time (s) [2, 10]: not significantly different from the model group | Immobility Time [2, 11]: 81.32 ± 32.756 s | Immobility Time (s) [2, 11]: not significantly different from the model group

CNCCC(Oc1ccc(C(F)(F)F)cc1)c1ccccc1 (stereo not drawn) [Positive control, Fluoxetine Hydrochloride]
Score of horizontal movement ([3]; listed as Positice control): 28.09 ± 18.55 | Score of vertical movement ([3]; listed as Positice control): 7.00 ± 3.90 | Score of horizontal movement ([3]; listed as Prozac): significantly increased | Score of vertical movement ([3]; listed as Prozac): significantly increased | Immobility Time [4]: significantly reduced | body weights ([5]; Day 0): 257.19 ± 9.90 g | body weights ([5]; Day 7): 265.90 ± 13.94 g | body weights [5, 12]: 280.64 ± 12.32 g | body weights [5, 13]: significantly increased | body weights [5, 14]: 291.00 ± 11.31 g | body weights [5, 15]: significantly increased | Immobility Time [2, 9]: 66.21 ± 33.253 s | comsumption of aqeous sucrose ([6]; Day 0): 12.67 ± 5.53 mL | comsumption of aqeous sucrose ([6]; Day 7): 10.00 ± 4.24 mL | comsumption of aqeous sucrose [6, 12]: 15.00 ± 2.22 mL | comsumption of aqeous sucrose [6, 13]: significantly increased | comsumption of aqeous sucrose [6, 14]: 14.91 ± 2.68 mL | comsumption of aqeous sucrose [6, 15]: significantly increased | Error times in training period [7]: 2.09 ± 1.22 | Error times in training period ([7]; listed as Prozac): significantly reduced | Error times in testing period [7]: 0.72 ± 1.19 | Error times in testing period ([7]; listed as Prozac): significantly reduced

Fc1ccc([C@@H]2CCNC[C@H]2COc2ccc3c(c2)OCO3)cc1 [Paroxetine]
Hypothermia value (° C.) [8]: 2.38 ± 0.69** ° C. | Hypothermia value (° C.) ([8]; listed as paroxetine): significantly recede

— patent US9023817B2, “Use of albiflorin for anti-depression” (priority 2009, dated 2015)
